In US12552812B2, “Pyridone multiple-membered ring derivatives and use thereof” (priority 2021, dated 2026):
pEC50: −log10 of the molar value.

How the values were obtained:
[1] = system: Baloxavir-resistant A/PR/8/34 (H1N1) I38T virus strain; design: species or system BALB/c mice; settings: mouse, in vivo
[2] = system: Baloxavir-resistant A/PR/8/34 (H1N1) I38T influenza virus strain; format: cell-based

| Compound | Survival rate (%) [1] [%] | body weight of the mice [1] | pEC50 [2] |
| --- | --- | --- | --- |
| COC(=O)OCOc1c2n(ccc1=O)N([C@H]1c3ccc(F)c(F)c3C[Se]c3cccnc31)[C@@H]1COCCN1C2=O [Compound 4] | 100 | hardly decreased | – |
| O=C1c2c(O)c(=O)ccn2N([C@H]2c3ccc(F)c(F)c3C[Se]c3cccnc32)[C@@H]2COCCN12 [Compound 3] | – | – | 7.24 |
